For ten molecules, GI50 and TGI results are on record in PubChem BioAssay (NCI).

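Test compounds were applied to cells in 96-well plates for 48 hours at 5 doses. The concentration for 50% growth inhibition is given as GI50. The concentration for full growth arrest is given as TGI.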

Some test systems named below: SNB-19 CNS; TK-10 renal; DU-145 prostate; A498 renal; HOP-92 NSCLC; RXF 393 renal; MALME-3M melanoma; OVCAR-8 ovarian; HCT-15 colon; SN12C renal.
Experiment in all cases: growth of human tumour cells (NCI), 48 h

Consider `COc1ccc(C(=O)/C=C/c2ccc(Cl)cc2)cc1S(N)(=O)=O`, for which the GI50 was 3.1 µM in the test on SNB-19 CNS; 2.47 µM with TK-10 renal; 3.43 µM in the test with DU-145 prostate; 10.4 µM with A498 renal; 2.14 µM in the test on HOP-92 NSCLC; 1.98 µM in the test with RXF 393 renal. The GI50 in the test on MALME-3M melanoma is 5.89 µM; with OVCAR-8 ovarian, 3.55 µM; in the test on HCT-15 colon it was 2.14 µM; in the test with SN12C renal it was 2.72 µM. Besides, the TGI with SNB-19 CNS was determined as 10.3 µM; in the test on TK-10 renal, 7.81 µM; in the test with DU-145 prostate, 13.2 µM; in the test with A498 renal it was 22.1 µM; in the test on HOP-92 NSCLC, 5.78 µM; in the test on RXF 393 renal it was 3.97 µM. The TGI amounted to 20.2 µM in the test with MALME-3M melanoma, 10.2 µM in the test on OVCAR-8 ovarian, 10.6 µM in the test with HCT-15 colon and 8.4 µM in the test on SN12C renal.

As to `C1=C[C@@H]2c3ccc4cnccc4c3NC[C@@H]2C1`, the TGI in the test with SNB-19 CNS, with TK-10 renal, with DU-145 prostate, in the test with A498 renal, in the test on HOP-92 NSCLC and in the test on RXF 393 renal was > 100 µM each time. In addition, the TGI in the test on MALME-3M melanoma, in the test with OVCAR-8 ovarian, in the test with HCT-15 colon and in the test with SN12C renal was > 100 µM throughout.

With `O=C1CCC/C=C\C[C@H]2C=C(Cl)C(=O)/C2=C/C[C@H](CCCCC(F)(F)F)OC(=O)CCC/C=C\C[C@H]2C=C(Cl)C(=O)/C2=C/C[C@H](CCCCC(F)(F)F)O1`, the GI50 was 0.353 µM in the test with SNB-19 CNS; 0.346 µM with TK-10 renal; 0.264 µM with DU-145 prostate; 0.965 µM in the test on A498 renal; 0.199 µM with HOP-92 NSCLC; 0.134 µM in the test on RXF 393 renal. Further, the GI50 was 0.21 µM with MALME-3M melanoma, 0.231 µM in the test on OVCAR-8 ovarian and 0.297 µM in the test on HCT-15 colon. Further, the TGI with SNB-19 CNS was 1.67 µM; with TK-10 renal it was 1.89 µM; in the test with DU-145 prostate it was 1.42 µM; in the test on A498 renal, 2.12 µM; in the test with HOP-92 NSCLC it was 0.754 µM; with RXF 393 renal, 0.279 µM. The values for the TGI in the test on MALME-3M melanoma, in the test with OVCAR-8 ovarian and with HCT-15 colon were 0.694 µM, 1.09 µM and 1.32 µM, respectively.

For the molecule `COc1c(O)c2ccccc2c2cc(O)ccc12`, the TGI turned out to be 28.2 µM in the test on SNB-19 CNS; 61.2 µM in the test with TK-10 renal; 21 µM in the test with DU-145 prostate; 24.1 µM with A498 renal; 24.3 µM in the test with HOP-92 NSCLC; 22.9 µM in the test on RXF 393 renal. Besides, the TGI in the test with MALME-3M melanoma was found to be 3.18 µM; with OVCAR-8 ovarian it was 15.4 µM; in the test with HCT-15 colon it was 20.1 µM; in the test with SN12C renal, 14.1 µM.

On to `CN(NC(=O)/C(=C/c1ccc(O)cc1)NC(=O)c1ccccc1)c1ccnc2cc(Cl)ccc12`, for which the TGI in the test with SNB-19 CNS was 32.6 µM; in the test with TK-10 renal it was 30 µM; in the test with DU-145 prostate, 56.9 µM; in the test with A498 renal it was 32.4 µM; with HOP-92 NSCLC it was 32.2 µM; in the test on RXF 393 renal, 32 µM. The figures for the TGI in the test on MALME-3M melanoma, in the test on OVCAR-8 ovarian and in the test on SN12C renal were 39.8 µM, 47 µM and 48.6 µM, respectively.

Consider `COc1ccc(NC(=O)c2ccc(NC3=C(Cl)C(=O)N(Cc4ccccc4)C3=O)cc2)cc1`, for which the GI50 was 18 µM with SNB-19 CNS; 22.1 µM with TK-10 renal; 5 µM in the test with DU-145 prostate; 16.8 µM in the test with A498 renal; 3.63 µM with HOP-92 NSCLC; 3.21 µM in the test on RXF 393 renal. The GI50 in the test on OVCAR-8 ovarian is 3.84 µM; in the test with HCT-15 colon, 4.04 µM; in the test with SN12C renal it was 14.4 µM. For the same molecule, the TGI in the test with SNB-19 CNS turned out to be 40.4 µM; in the test with TK-10 renal, 38 µM; in the test on DU-145 prostate it was 24.3 µM; with A498 renal, 34.8 µM; with HOP-92 NSCLC, 13.8 µM; in the test with RXF 393 renal, 14.6 µM. Besides, the TGI with OVCAR-8 ovarian came out at 18.2 µM; in the test on HCT-15 colon, 17.3 µM; in the test with SN12C renal, 30.2 µM.

`Cn1cc(-c2ccc3cc(-c4ccc(CC(=O)Nc5cc(C(C)(C)C)nn5C)cc4)cnc3c2)cn1`: the GI50 is 0.473 µM in the test with SNB-19 CNS; 0.492 µM in the test with TK-10 renal; 0.17 µM in the test on DU-145 prostate; 0.0246 µM in the test with A498 renal; 0.401 µM in the test on HOP-92 NSCLC; 0.146 µM in the test on MALME-3M melanoma. The GI50 with OVCAR-8 ovarian is 0.274 µM; in the test with HCT-15 colon, 0.157 µM; in the test with SN12C renal, 0.23 µM. Further, the TGI is > 100 µM in the test with SNB-19 CNS; > 100 µM in the test on TK-10 renal; > 100 µM with DU-145 prostate; 0.175 µM in the test with A498 renal; > 100 µM in the test on HOP-92 NSCLC; > 100 µM in the test with MALME-3M melanoma. Besides, the TGI in the test with OVCAR-8 ovarian, with HCT-15 colon and with SN12C renal was > 100 µM each time.

With `CC1(CCCC2(C)CCNC2=O)OCCO1` (centres undefined), the TGI in the test on SNB-19 CNS, in the test with TK-10 renal, in the test on DU-145 prostate, in the test on A498 renal, in the test on RXF 393 renal and with MALME-3M melanoma was > 10 µM each time. The TGI in the test on OVCAR-8 ovarian, in the test on HCT-15 colon and with SN12C renal was > 10 µM in each case.

Consider `CC/C=C/[C@@H]1C=C[C@@H]2CCC[C@H]2[C@@H]1CC[C@H](O)[C@H](C)N`, for which the GI50 was 1.36 µM in the test with TK-10 renal; 1.93 µM in the test with DU-145 prostate; 1.62 µM with A498 renal; 1.41 µM in the test on HOP-92 NSCLC; 1.94 µM in the test with RXF 393 renal; 1.35 µM in the test with MALME-3M melanoma. Besides, the GI50 was 2.3 µM with OVCAR-8 ovarian, 1.54 µM with HCT-15 colon and 4.25 µM in the test on SN12C renal. In addition, the TGI in the test on TK-10 renal turned out to be 2.68 µM; in the test on DU-145 prostate it was 3.98 µM; in the test with A498 renal it was 5.58 µM; with HOP-92 NSCLC it was 3.89 µM; in the test on RXF 393 renal it was 4.17 µM; with MALME-3M melanoma, 2.95 µM. The TGI with OVCAR-8 ovarian was found to be 5.54 µM; with HCT-15 colon, 2.87 µM; with SN12C renal, 18.6 µM.

With `Cc1c2c(n3c(nc4ccccc43)c1C#N)SCC2`, the TGI in the test with SNB-19 CNS, in the test with TK-10 renal, with DU-145 prostate, in the test with A498 renal, in the test on HOP-92 NSCLC and in the test with MALME-3M melanoma was > 10 µM throughout. In addition, the TGI with OVCAR-8 ovarian, in the test with HCT-15 colon and with SN12C renal was > 10 µM throughout.
